Assay results reported in ChEMBL document CHEMBL5465560, “Selectivity Literature for EUbOPEN Chemogenomic Library” (2024).
Values belong to the molecule of their own block, whether it stands above or below them.

Legend:
Nav1.5 (SCN5A) = Nav1.5 (SCN5A) (Homo sapiens, UniProt Q14524); test: Selectivity interaction (Panel of kinases, GPCRs, ion channels and transporters (enzymatic assay)) EUB0000266bCl SCN5A
[1] = target: T1, Histone-lysine N-methyltransferase EHMT1 (Homo sapiens) (UniProt Q9H9B1); details: at 1 µM
T1 sequence (whole entry): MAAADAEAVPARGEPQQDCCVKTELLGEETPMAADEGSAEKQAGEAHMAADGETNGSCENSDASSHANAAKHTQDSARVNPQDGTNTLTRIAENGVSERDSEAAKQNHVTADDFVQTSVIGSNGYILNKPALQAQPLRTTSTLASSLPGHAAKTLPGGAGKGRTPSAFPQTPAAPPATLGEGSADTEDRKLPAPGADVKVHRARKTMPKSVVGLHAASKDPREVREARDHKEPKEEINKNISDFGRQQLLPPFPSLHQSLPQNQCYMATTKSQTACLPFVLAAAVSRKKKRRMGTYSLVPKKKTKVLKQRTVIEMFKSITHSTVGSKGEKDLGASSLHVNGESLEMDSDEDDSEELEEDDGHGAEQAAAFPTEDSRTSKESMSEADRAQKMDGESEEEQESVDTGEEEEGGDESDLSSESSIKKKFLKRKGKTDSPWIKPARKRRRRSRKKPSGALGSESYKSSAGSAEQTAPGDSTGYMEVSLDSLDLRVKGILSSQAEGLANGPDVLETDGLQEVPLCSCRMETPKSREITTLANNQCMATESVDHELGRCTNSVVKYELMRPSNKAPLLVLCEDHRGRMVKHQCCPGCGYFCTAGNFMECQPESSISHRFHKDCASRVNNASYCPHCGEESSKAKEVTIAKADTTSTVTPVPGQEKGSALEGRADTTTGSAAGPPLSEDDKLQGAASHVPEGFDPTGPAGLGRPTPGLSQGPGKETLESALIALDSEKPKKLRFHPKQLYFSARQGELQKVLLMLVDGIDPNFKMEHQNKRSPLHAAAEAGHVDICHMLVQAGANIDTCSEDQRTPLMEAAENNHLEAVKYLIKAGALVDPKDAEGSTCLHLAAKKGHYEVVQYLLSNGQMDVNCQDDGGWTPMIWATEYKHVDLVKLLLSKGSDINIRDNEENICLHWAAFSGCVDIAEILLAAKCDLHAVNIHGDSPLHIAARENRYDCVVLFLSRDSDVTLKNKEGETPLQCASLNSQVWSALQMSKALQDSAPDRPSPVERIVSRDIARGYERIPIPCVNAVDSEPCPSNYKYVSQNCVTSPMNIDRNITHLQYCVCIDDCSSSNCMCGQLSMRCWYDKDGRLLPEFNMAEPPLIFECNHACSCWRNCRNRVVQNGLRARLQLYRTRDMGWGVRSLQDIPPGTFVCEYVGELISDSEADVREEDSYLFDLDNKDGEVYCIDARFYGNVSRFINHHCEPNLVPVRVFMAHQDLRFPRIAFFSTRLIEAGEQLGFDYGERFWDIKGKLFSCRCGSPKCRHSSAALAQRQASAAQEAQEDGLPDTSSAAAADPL

[2] = target: Histone-lysine N-methyltransferase SETD2 (Homo sapiens) (UniProt Q9BYW2); test: Selectivity interaction (Methyltransferase screen (radiometric assays, panel of 8 PRMTs, 21 protein lysine methyltransferases, 3 DNA methyltransferases, and one RNA methyltransferase)) EUB0000272b SETD2
[3] = target: Tyrosine-protein kinase Lck (Homo sapiens, UniProt P06239); test: Selectivity interaction (Panel of non-epigenetic targets (kinases, GPCRs, ion channels, and transporters, Eurofins) ) EUB0000271b LCK; details: at 1 µM
[4] = target: T2, Protein kinase C epsilon type (Homo sapiens) (UniProt Q02156); test: Selectivity interaction (KinomeScan (DiscoverX)) EUB0000229b PRKCE; details: at 10 µM
T2 sequence (whole entry): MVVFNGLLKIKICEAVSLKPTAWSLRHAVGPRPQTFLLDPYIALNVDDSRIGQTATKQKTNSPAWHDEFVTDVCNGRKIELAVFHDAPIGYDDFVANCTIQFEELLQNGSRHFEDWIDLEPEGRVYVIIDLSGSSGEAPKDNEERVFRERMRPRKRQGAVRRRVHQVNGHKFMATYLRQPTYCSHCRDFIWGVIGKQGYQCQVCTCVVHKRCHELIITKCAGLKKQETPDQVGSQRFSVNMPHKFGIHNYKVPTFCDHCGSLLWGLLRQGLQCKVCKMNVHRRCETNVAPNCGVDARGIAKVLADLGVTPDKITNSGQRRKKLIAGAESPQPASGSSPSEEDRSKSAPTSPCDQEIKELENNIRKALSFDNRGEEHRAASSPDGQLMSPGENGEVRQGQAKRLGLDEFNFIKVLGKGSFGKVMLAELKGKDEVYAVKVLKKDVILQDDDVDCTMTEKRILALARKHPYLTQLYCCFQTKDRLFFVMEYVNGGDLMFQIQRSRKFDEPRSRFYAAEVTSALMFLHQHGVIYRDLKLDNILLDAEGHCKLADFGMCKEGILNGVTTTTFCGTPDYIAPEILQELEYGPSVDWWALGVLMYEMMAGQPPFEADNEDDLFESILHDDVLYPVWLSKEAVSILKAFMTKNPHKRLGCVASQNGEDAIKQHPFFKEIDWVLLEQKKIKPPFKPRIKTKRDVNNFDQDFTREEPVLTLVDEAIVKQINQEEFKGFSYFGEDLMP

[5] = target: Cyclin-dependent kinase-like 3 (Homo sapiens) (UniProt Q8IVW4); test: Selectivity interaction (KinomeScan (DiscoverX)) EUB0000092b CDKL3; details: at 10 µM

Histone-lysine N-methyltransferase SETD2 (Homo sapiens), sequence (Q9BYW2 whole entry): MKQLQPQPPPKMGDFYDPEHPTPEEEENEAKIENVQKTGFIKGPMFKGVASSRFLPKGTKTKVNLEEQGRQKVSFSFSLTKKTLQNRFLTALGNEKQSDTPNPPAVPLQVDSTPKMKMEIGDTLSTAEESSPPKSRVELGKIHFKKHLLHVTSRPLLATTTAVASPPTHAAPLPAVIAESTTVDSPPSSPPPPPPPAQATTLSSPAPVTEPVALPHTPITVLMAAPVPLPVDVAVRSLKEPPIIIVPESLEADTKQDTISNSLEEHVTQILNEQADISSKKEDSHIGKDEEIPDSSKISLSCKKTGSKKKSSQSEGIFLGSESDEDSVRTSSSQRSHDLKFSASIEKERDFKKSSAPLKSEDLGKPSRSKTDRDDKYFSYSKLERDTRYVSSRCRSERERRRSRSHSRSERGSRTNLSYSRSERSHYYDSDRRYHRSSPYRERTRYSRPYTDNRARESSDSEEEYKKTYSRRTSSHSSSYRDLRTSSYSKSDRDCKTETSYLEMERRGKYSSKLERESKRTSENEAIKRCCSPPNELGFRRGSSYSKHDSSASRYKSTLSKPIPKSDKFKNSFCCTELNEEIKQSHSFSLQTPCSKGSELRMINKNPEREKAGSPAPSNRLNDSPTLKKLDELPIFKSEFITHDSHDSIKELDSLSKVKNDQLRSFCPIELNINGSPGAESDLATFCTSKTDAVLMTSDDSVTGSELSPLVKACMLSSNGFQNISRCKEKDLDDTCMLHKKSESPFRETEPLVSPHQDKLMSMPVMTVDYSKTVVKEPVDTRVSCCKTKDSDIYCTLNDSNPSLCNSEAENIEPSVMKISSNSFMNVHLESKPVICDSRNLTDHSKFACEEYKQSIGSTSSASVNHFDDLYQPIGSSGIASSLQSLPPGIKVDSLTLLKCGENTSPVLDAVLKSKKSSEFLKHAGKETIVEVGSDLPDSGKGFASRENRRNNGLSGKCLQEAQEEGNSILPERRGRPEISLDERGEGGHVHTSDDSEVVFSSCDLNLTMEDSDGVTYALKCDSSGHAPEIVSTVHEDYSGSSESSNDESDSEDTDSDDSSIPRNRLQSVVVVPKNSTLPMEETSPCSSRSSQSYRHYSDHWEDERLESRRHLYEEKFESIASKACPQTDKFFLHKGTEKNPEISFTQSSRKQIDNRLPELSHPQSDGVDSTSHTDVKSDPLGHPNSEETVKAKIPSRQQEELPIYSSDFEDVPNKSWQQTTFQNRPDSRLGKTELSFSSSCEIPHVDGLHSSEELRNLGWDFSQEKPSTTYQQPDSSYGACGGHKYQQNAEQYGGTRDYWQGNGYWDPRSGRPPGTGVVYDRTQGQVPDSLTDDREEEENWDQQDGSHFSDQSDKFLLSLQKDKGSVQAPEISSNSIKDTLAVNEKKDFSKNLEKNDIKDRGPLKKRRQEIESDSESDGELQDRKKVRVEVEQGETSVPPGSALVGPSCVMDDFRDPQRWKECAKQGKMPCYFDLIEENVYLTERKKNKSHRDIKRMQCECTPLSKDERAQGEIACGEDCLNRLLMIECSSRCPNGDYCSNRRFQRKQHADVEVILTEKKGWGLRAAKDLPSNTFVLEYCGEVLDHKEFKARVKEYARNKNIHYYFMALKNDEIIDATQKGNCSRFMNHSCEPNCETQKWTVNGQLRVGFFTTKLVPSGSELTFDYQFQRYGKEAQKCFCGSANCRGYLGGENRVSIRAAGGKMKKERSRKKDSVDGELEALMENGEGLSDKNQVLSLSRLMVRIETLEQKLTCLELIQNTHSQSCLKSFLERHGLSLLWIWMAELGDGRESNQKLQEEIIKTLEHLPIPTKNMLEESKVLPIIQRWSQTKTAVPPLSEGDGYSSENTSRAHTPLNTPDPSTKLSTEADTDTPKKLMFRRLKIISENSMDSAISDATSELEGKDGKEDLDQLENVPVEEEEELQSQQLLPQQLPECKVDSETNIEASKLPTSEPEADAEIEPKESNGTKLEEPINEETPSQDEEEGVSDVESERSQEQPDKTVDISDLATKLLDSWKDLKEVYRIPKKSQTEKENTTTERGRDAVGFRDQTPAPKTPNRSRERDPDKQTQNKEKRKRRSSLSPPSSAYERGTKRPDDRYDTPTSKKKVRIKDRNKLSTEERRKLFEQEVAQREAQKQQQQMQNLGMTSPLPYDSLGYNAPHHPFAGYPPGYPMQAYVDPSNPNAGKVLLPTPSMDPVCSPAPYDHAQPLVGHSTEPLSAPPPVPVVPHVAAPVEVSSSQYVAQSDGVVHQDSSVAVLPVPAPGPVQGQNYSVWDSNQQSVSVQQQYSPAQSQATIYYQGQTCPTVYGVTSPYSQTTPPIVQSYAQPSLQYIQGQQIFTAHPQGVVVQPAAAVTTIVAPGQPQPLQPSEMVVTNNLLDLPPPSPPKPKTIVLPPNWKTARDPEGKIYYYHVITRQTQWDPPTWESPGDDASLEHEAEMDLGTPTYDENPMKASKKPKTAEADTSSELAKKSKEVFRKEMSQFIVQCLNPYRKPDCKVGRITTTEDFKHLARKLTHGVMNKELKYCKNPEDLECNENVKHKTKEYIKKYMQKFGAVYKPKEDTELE
Tyrosine-protein kinase Lck, sequence (P06239 2-509 limits assumed): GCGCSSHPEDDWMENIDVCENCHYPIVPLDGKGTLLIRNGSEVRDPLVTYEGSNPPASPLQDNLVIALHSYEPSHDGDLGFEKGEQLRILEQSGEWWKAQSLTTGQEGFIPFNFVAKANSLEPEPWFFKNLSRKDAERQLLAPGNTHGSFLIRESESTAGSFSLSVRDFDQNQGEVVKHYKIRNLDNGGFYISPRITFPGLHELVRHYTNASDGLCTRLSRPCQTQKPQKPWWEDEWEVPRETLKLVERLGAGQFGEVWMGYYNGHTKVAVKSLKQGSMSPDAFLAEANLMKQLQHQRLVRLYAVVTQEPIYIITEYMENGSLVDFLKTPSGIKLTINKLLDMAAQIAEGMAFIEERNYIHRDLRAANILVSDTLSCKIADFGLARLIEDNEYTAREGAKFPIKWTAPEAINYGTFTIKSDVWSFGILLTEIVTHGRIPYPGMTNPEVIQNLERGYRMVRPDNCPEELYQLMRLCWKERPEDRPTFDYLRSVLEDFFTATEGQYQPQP
Nav1.5 (SCN5A), sequence (Q14524 whole entry): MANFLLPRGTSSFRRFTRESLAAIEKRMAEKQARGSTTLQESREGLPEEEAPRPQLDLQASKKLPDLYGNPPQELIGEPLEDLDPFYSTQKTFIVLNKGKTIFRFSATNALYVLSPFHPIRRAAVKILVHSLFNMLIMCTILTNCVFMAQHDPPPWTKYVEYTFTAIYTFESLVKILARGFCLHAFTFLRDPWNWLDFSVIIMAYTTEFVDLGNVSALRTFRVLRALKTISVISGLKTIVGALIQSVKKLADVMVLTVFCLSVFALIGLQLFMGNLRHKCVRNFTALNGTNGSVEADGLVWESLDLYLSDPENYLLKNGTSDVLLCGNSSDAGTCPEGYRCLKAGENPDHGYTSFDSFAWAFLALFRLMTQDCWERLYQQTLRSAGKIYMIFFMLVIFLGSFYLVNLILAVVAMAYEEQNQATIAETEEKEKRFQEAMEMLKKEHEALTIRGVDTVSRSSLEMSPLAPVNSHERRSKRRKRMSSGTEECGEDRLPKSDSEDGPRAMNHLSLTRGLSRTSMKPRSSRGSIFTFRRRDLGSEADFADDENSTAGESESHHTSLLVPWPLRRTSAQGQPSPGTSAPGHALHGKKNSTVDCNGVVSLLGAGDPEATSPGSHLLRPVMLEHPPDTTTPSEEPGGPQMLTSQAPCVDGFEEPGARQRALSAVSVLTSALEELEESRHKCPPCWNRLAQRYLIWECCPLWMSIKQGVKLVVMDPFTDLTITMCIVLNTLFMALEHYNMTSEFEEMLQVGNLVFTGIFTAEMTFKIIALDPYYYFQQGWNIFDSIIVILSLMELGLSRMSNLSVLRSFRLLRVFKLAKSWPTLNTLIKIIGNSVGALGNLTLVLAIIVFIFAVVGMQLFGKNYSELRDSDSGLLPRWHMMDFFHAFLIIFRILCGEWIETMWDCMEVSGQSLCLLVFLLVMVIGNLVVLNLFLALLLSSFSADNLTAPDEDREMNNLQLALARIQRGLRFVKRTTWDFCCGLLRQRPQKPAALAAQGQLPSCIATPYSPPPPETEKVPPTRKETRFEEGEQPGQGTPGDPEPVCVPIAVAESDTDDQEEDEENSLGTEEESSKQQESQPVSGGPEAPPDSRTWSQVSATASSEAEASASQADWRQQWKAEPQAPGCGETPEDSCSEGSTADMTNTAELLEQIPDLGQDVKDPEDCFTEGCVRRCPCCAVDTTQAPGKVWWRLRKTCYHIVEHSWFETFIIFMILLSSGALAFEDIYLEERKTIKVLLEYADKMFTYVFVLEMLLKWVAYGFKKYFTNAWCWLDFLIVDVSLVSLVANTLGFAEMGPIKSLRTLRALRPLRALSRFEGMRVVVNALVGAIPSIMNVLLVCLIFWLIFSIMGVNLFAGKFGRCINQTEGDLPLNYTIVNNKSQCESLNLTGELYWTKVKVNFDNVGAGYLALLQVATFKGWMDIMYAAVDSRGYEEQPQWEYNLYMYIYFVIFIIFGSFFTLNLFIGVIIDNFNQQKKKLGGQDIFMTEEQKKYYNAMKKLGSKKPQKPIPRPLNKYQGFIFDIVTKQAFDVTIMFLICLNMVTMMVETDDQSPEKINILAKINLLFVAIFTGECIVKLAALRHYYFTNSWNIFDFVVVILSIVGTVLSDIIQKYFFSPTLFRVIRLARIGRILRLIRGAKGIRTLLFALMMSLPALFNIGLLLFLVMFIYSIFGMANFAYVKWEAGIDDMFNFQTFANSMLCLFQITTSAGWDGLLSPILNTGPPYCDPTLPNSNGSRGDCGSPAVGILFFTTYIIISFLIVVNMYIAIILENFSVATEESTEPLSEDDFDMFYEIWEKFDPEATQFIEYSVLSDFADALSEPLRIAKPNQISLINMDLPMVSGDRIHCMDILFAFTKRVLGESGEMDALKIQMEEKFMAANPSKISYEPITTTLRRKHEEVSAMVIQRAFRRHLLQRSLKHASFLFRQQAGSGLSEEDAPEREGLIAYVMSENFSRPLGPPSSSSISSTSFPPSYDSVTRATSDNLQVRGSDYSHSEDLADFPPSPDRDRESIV

Structure (SMILES): CCn1c(-c2nc3cc(C(=O)N4CCCC(N)C4)ccc3n2C)cc2ccccc21 (configuration not stated)
XC50 (Nav1.5 (SCN5A)): 31.6 µM

% activity [1]: > 90%
Structure (SMILES): CNCCN1CCC(c2cc(CN(C)C(=O)c3cccc(Oc4ccccc4)c3)ccn2)CC1

% of activity ([2]; at 1 µM): 98% | % of activity ([2]; at 10 µM): 98.3%
Structure (SMILES): Cc1cc(C)cc([C@H]2c3cc(C)ccc3NC(=O)CN2C(=O)c2ccc(Br)s2)c1

Structure (SMILES): Cc1cc(C)cc([C@@H]2c3cc(C)ccc3NC(=O)CN2C(=O)c2ccc(Br)s2)c1
% of inhibition [3]: 1%

Structure (SMILES): COc1cc(N(C)c2ccnc3ccc(C(F)(F)F)cc23)cc(OC)c1OC
% binding [4]: 55%

Structure (SMILES): CCC(=O)N1CCN(c2ccc(-n3c(=O)ccc4cnc5ccc(-c6cnc7ccccc7c6)cc5c43)cc2C(F)(F)F)CC1
% of control [5]: 92%
